The text below walks through data of patent US20240269113A1, “3-(2-(DIMETHYLAMINO)ETHYL)-1H-INDOL-4-yl DERIVATIVES” (priority 2023, published 2024).

The format of data set [1] is in vitro ADME. The method, then: The elimination rate constant and half-life (t1/2) were determined using Ln(MS response) vs time plots. […] The human plasma stability data are included in table A.

For the molecule `CC(=O)N(C)CCOC(=O)Oc1cccc2[nH]cc(CCN(C)C)c12` [Compound 87, 3-(2-(dimethylamino)ethyl)-1H-indol-4-yl (2-(N-methylacetamido)ethyl) carbonate], the “Human Plasma Maximum % Psilocin” value in data set [1] came to 91%. Consider `CC(=O)Oc1ccccc1C(=O)Oc1cccc2[nH]cc(CCN(C)C)c12` [Compound 99, 3-(2-(dimethylamino)ethyl)-1H-indol4-yl 2-acetoxybenzoate], for which the “Human Hepatocytes Maximum % Psilocin” value is recorded as 100%. For the same molecule, the “Human Plasma Maximum % Psilocin” value in data set [1] is given as 100%. For `CN(C)CCc1c[nH]c2cccc(OC(=O)c3cccnc3)c12` [Compound 91, 3-(2-(dimethylamino)ethyl)-1H-indol-4-yl nicotinate], in data set [1], the “Human Plasma Maximum % Psilocin” value amounted to 100%. The same measure, in the same setting: the result for `CN(C)CCc1c[nH]c2cccc(OC(=O)Cc3ccccc3)c12` [Compound 176, 3-(2-(dimethylamino)ethyl)-1H-indol-4-yl 2-phenylacetate] reads 100%; that for `CN(C)CCc1c[nH]c2cccc(OC(=O)CCCc3ccccc3)c12` [Compound 96, 3-(2-(dimethylamino)ethyl)-1H-indol-4-yl 4-phenylbutanoate], 75%.
